Assay results: ChEMBL document CHEMBL1127384, “Design, synthesis, and conformational analysis of a novel macrocyclic HIV-protease inhibitor” (J Med Chem, 1994)

Molecular target: Human immunodeficiency virus type 1 protease (Human immunodeficiency virus 1, UniProt Q72874)
Experiment: In vitro ability to inhibit HIV-protease.

Compound | Ki [nM]
CC(C)[C@H](NC(=O)OCc1ccccc1)C(=O)N[C@@H](Cc1ccc(OCc2ccccc2)cc1)C(=O)C(F)(F)C(=O)NCc1ccccc1 | 5
CC(C)[C@@H]1NC(=O)CNC(=O)COc2ccc(cc2)C[C@@H](C(=O)C(F)(F)C(=O)NCc2ccccc2)NC1=O | 20
